Laboratory results: patent US20220249447A1, “CF3-, OCF3-, SCF3-, and SF5-Containing Antibacterial Agents” (Purdue Research Foundation, priority 2019, published 2022)
Values after ≈ are worked out from the molar mass of the structure shown.

Legend:
S. aureus = test: MIC, broth microdilution, S. aureus; format: cell-based; conditions: Staphylococcus aureus
Procedure: (§1) Bacteria were cultured in cation-adjusted Mueller Hinton Broth (for strains in Tables 1-3) or Brain Heart Infusion broth (for Enterococcus faecium) or Tryptic Soy Broth (all other bacteria) in a 96-well plate at 37° C. for at least 20 hours. The MIC was classified as the lowest concentration where no visual growth of bacteria was observed. The minimum bactericidal concentration (MBC) was tested by spotting 4 μL from wells with no growth onto Tryptic Soy Agar (TSA) plates. Plates were incubated at 37° C. for at least 18 hours before recording the MBC.

MRSA ATCC 33592 = test: MIC, broth microdilution, MRSA ATCC 33592; format: cell-based, methicillin-resistant S. aureus; conditions: Staphylococcus aureus
Procedure: All MRSA isolates were acquired from BEI Resources. The remaining bacteria were purchased from the American Type Culture Collection (ATCC).
as §1

E. faecalis ATCC 29212 = test: MIC, broth microdilution, E. faecalis ATCC 29212; format: cell-based; conditions: Enterococcus faecalis, ATCC29212
Procedure: as §1

C. difficile ATCC 43255 = test: MIC against C. difficile ATCC 43255; format: cell-based; conditions: Clostridioides difficile, ATCC43255; read-out: MIC C. difficile ATCC 43255
Procedure: as §1

[1] = tested on: C. difficile NR-13435 (isolate 9); test: MIC against C. difficile NR-13435 (isolate 9); format: cell-based; conditions: Clostridioides difficile; read-out: MIC C. difficile NR-13435 (isolate 9)
Procedure: as §1

[2] = tested on: C. difficile NR-32904 (P30); test: MIC against C. difficile NR-32904 (P30); format: cell-based; conditions: Clostridioides difficile; read-out: MIC C. difficile NR-32904 (P30)
Procedure: as §1

[3] = tested on: C. difficile NR-32895 (P19); test: MIC against C. difficile NR-32895 (P19); format: cell-based; conditions: Clostridioides difficile; read-out: MIC C. difficile NR-32895 (P19)
Procedure: as §1

[4] = tested on: Neisseria gonorrhea strain 181; test: MIC against Neisseria gonorrhea strain 181; format: cell-based
Procedure: as §1

[5] = tested on: C. difficile NR-32891 (P13); test: MIC against C. difficile NR-32891 (P13); format: cell-based; conditions: Clostridioides difficile; read-out: MIC C. difficile NR-32891 (P13)
Procedure: as §1

MRSA USA300 cells = test: Time-kill assay; format: cell-based; conditions: for Δlog2 CFU/mL: MRSA USA300, 3× MIC or 6× MIC, up to 24 hours
Procedure: The time-kill analysis was performed as previously described^29. […] Aliquots (100 μL) were collected from each treatment after 0, 2, 4, 8, 12, and 24 hours of incubation at 37° C. and subsequently serially diluted in phosphate-buffered saline (PBS). Bacteria were then transferred to TSA plates and incubated at 37° C. for 18-20 hours before viable CFU/mL was determined (see FIG. 2).

[6] = tested on: C. difficile NR-32883 (P2); test: MIC against C. difficile NR-32883 (P2); format: cell-based; conditions: Clostridioides difficile; read-out: MIC C. difficile NR-32883 (P2)
Procedure: as §1

[7] = tested on: C. difficile ATCC BAA 1801; test: MIC against C. difficile ATCC BAA 1801; format: cell-based; conditions: Clostridioides difficile, BAA1801; read-out: MIC C. difficile ATCC BAA 1801
Procedure: as §1

VRE ATCC 51575 = test: MIC, broth microdilution, VRE ATCC 51575; format: cell-based; conditions: Enterococcus
Procedure: as §1

[8] = tested on: C. difficile NR-13432 (isolate 6); test: MIC against C. difficile NR-13432 (isolate 6); format: cell-based; conditions: Clostridioides difficile; read-out: MIC C. difficile NR-13432 (isolate 6)
Procedure: as §1

[9] = tested on: L. monocytogenes ATCC 19115; test: MIC, broth microdilution, L. monocytogenes ATCC 19115; format: cell-based; conditions: Listeria monocytogenes, ATCC19115
Procedure: as §1

MIC [4] [µg/mL] | SMILES | MIC (S. aureus) [µg/mL] | MIC (MRSA ATCC 33592) [µg/mL] | MIC (E. faecalis ATCC 29212) [µg/mL] | MIC (C. difficile ATCC 43255) [µg/mL] | MIC [1] [µg/mL] | MIC [2] [µg/mL] | MIC [3] [µg/mL] | MIC [5] [µg/mL] | Bactericidal/Bacteriostatic (MRSA USA300 cells) | Δlog2 CFU/mL (MRSA USA300 cells) | MIC [6] [µg/mL] | MIC [7] [µg/mL] | MIC (VRE ATCC 51575) [µg/mL] | MIC [8] [µg/mL] | MIC [9] [µg/mL]
 | O=C(Nc1nnc(-c2cccs2)o1)c1ccc(S(F)(F)(F)(F)F)cc1 [HSGN-144, 4-(pentafluoro-sulfanyl)-N-(5-(thiophen-2-yl)-1,3,4-oxadiazol-2-yl)benzamide] | 0.25 (≈ 0.629 µM) | 0.5 (≈ 1.26 µM) | 2 (≈ 5.03 µM) | 0.125 (≈ 0.315 µM) | 0.015 (≈ 0.0378 µM) | 0.125 (≈ 0.315 µM) | 0.06 (≈ 0.151 µM) | 0.125 (≈ 0.315 µM) | Bactericidal | 3.96 | 0.003 (≈ 0.00755 µM) | 0.03 (≈ 0.0755 µM) | 2 (≈ 5.03 µM) | 0.015 (≈ 0.0378 µM) | 1 (≈ 2.52 µM)
 | O=C(Nc1nnc(-c2cccs2)o1)c1ccc(OC(F)(F)F)cc1 [HSGN-145, N-(5-(thiophen-2-yl)-1,3,4-oxadiazol-2-yl)-4-(trifluoromethoxy)benzamide] | 1 (≈ 2.81 µM) | 1 (≈ 2.81 µM) | > 8 | 0.5 (≈ 1.41 µM) | 0.5 (≈ 1.41 µM) | 1 (≈ 2.81 µM) | 1 (≈ 2.81 µM) | 2 (≈ 5.63 µM) | Bacteriostatic | 0.69 | 1 (≈ 2.81 µM) | 0.5 (≈ 1.41 µM) | 8 (≈ 22.5 µM) | 0.5 (≈ 1.41 µM) | 8 (≈ 22.5 µM)
0.25 (≈ 0.652 µM) | O=C(Nc1nnc(-c2cccc(F)c2)o1)c1ccc(SC(F)(F)F)cc1 [HSGN-205, N-(5-(3-fluorophenyl)-1,3,4-oxadiazol-2-yl)-4-((trifluoromethyl)thio)benzamide] | 0.5 (≈ 1.3 µM) | 0.25 (≈ 0.652 µM) | 2 (≈ 5.22 µM) | 0.003 (≈ 0.00783 µM) | 0.007 (≈ 0.0183 µM) | 0.015 (≈ 0.0391 µM) | 0.007 (≈ 0.0183 µM) | 0.03 (≈ 0.0783 µM) |  |  | 0.003 (≈ 0.00783 µM) | 0.03 (≈ 0.0783 µM) | 4 (≈ 10.4 µM) | 0.03 (≈ 0.0783 µM) | 1 (≈ 2.61 µM)
0.125 (≈ 0.288 µM) | O=C(Nc1nnc(-c2cc(Cl)cc(Cl)c2)o1)c1ccc(SC(F)(F)F)cc1 [HSGN-218, N-(5-(3,5-dichlorophenyl)-1,3,4-oxadiazol-2-yl)-4-((trifluoromethyl)thio)benzamide] | 0.0625 (≈ 0.144 µM) | 0.0625 (≈ 0.144 µM) | 0.25 (≈ 0.576 µM) | 0.015 (≈ 0.0345 µM) | 0.003 (≈ 0.00691 µM) | 0.007 (≈ 0.0161 µM) | 0.007 (≈ 0.0161 µM) | 0.007 (≈ 0.0161 µM) |  |  | 0.007 (≈ 0.0161 µM) | 0.03 (≈ 0.0691 µM) | 0.25 (≈ 0.576 µM) | 0.03 (≈ 0.0691 µM) | 0.125 (≈ 0.288 µM)

SMILES | MIC [4] [µg/mL] | MIC (S. aureus) [µg/mL] | MIC (MRSA ATCC 33592) [µg/mL] | MIC (E. faecalis ATCC 29212) [µg/mL] | MIC (C. difficile ATCC 43255) [µg/mL] | MIC [1] [µg/mL] | MIC [2] [µg/mL] | MIC [3] [µg/mL] | MIC [5] [µg/mL] | Bactericidal/Bacteriostatic (MRSA USA300 cells) | Δlog2 CFU/mL (MRSA USA300 cells) | MIC [6] [µg/mL] | MIC [7] [µg/mL] | MIC (VRE ATCC 51575) [µg/mL] | MIC [8] [µg/mL] | MIC [9] [µg/mL]
O=C(Nc1nnc(-c2cccs2)o1)c1ccc(SC(F)(F)F)cc1 [HSGN-148, N-(5-(thiophen-2-yl)-1,3,4-oxadiazol-2-yl)-4-((trifluoromethyl)thio)benzamide] | 0.06 (≈ 0.162 µM) | 1 (≈ 2.69 µM) | 0.5 (≈ 1.35 µM) | 4 (≈ 10.8 µM) | 0.5 (≈ 1.35 µM) | 0.5 (≈ 1.35 µM) | 0.5 (≈ 1.35 µM) | 0.5 (≈ 1.35 µM) | 0.5 (≈ 1.35 µM) | Bactericidal | 4.2 | 0.5 (≈ 1.35 µM) | 0.5 (≈ 1.35 µM) | 4 (≈ 10.8 µM) | 0.5 (≈ 1.35 µM) | 2 (≈ 5.39 µM)
